The source of these data is patent EP0399909A1, “Cosmetic composition against skin ageing” (ELF SANOFI, priority 1989, dated 1990).

In this experiment the test system is fibroblastes de peau humaine (ATCC No CRL 1513). Briefly: SAMe formation in cultured human skin fibroblasts with increasing betaine concentrations (HPLC determination). It is filed as cell-based. To be noted: for Concentration de SAMe: 6 days culture, control without bétaïne 0,54. The method, then:
L'effet exercé par la bétaïne sur la formation de SAMe a été mis en évidence par les résultats obtenus à des concentrations croissantes de bétaïne dans des fibroblastes de peau humaine (ATCC No CRL 1513) en culture. Plus précisément, les cellules (2.10⁴/ml) ont été mises en culture pendant 6 jours dans 250 ml de milieu de culture Dulbecco's Modified Eagle Medium (DMEM) contenant 20 % de sérum de veau foetal, en présence de concentrations croissantes (de 10⁻⁵ M à 5.10⁻⁴ M) de bétaïne. Au terme de la culture, les cellules ont été décollées à la trypsine (0,05 %) et à l'EDTA (0,02 %) et centrifugées. Le surnageant a été récupéré et précipité à l'acide trichloroacétique (0,2 N, v/v) puis centrifugé à nouveau. Le surnageant a été ensuite récupéré et lyophylisé. Les lyophylisats ont été repris avec de l'eau et analysés en HPLC (Colonne : Nucléosyl C8; Eluant : Solvant A (acétate de sodium 8,2 g; octylsulfonate de sodium 200 mg; acide citrique 4,2 g; EDTA 50 mg; eau q.s. pour 1 litre) 95 % et Solvant B (méthanol) 5 %) en utilisant un détecteur à 260 nm. La quantité de SAMe a été déterminée d'après une gamme étalon traitée dans les mêmes conditions expérimentales.

In the case of `C[N+](C)(C)CC(=O)[O-]` [bétaïne, (CH₃)₃N⁺-CH₂-COO⁻], the “Concentration de SAMe” value (Concentration de bétaïne 1 (10⁻⁵ M)) is 0,62 nMoles/10⁷ cellules, the “Concentration de SAMe” value (Concentration de bétaïne 5 (10⁻⁵ M)) is 0,94 nMoles/10⁷ cellules, the “Concentration de SAMe” value (Concentration de bétaïne 10 (10⁻⁵ M)) is recorded as 1,72 nMoles/10⁷ cellules and the “Concentration de SAMe” value (Concentration de bétaïne 50 (10⁻⁵ M)) was 1,90 nMoles/10⁷ cellules. The “quantité d'adémétionine des fibroblastes de peau humaine” value (in vitro, even at very low concentrations) is recorded as “agit significativement”.
